Bridge positions count the residues as written; N and C are the ends. Square brackets hold non-standard residues; d marks the D form. Ends that are not written are not given here. cellulose = not defined here; βAla = NCCC(=O)O
How the values were obtained:
[1] = system: immunoglobulins from human plasma; experiment: Affinity chromatography of human plasma on peptide-sepharose matrices, binding capacity for immunoglobulins; settings: 6 volume fractions per column volume, 80 cm/h, elution pH 2.8
Procedure: For immobilization to a solid phase, the peptides were dissolved in coupling buffer (30% (v/v) acetonitrile, 0.5 M NaCl, 0.1 M NaHCO3, pH 8.3) to a concentration of 1 mg/ml and mixed with washed and CNBr-preactivated sepharose 4B at a volume ratio of 10:1. After completion of the coupling reaction, the peptide. matrices were washed with coupling buffer, and the excess CNBr groups were inactivated by incubation of the matrix in Tris buffer (100 mM Tris-HCl, 500 mM NaCl, pH 8.0).
The peptide loadings of the matrices were determined by photometry (A280 nm) by establishing the difference between the peptide mass employed before coupling and the non-immobilized peptide mass after coupling.
The peptide matrices were tested by means of affinity chromatography for their binding capacity and binding specificity for immunoglobulins with human plasma as a sample. Thus, 6 volume fractions of human plasma as the sample was passed through 1 column volume fraction of peptide matrix at a linear flow rate of 80 cm/h.
Prior to sample application, the affinity-chromatographic column was equilibrated with PBS, pH 7.2. […]
The determination of the concentration of the eluted protein was effected by photometric measurement of the adsorption at 280 nm. The immunoglobulin concentration was calculated therefrom with ε280 nm=1.35 cm^2/mg for IgG.

serum albumin = experiment: Cellulose-immobilized 13-mer peptide variants incubated with serum albumin (negative control), anti-human IgG-AP detection; format: binding; parameters: key: No binding of immunoglobulin for the defined peptide variant, detection negative: 0; Binding of immunoglobulin for the defined peptide variant, detection positive: +; settings: blocking buffer without addition, 3 h room temperature
Summary of the method: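 Membrane-bound peptides, spaced by two β-alanines, are probed with 1 μg/ml IgG-Fc or 1:10,000 serum for 3 h at room temperature; blocking buffer alone acts as control. Detection uses anti-human IgG-AP (1.2 μg/ml) and NBT/BCIP.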

[2] = system: immunoglobulins in human plasma; experiment: Cellulose-immobilized 13-mer peptide variants incubated with human plasma, anti-human IgG-AP detection; format: binding; parameters: key: No binding of immunoglobulin for the defined peptide variant, detection negative: 0; Binding of immunoglobulin for the defined peptide variant, detection positive: +; settings: human plasma as sample, diluted 1:10,000 in blocking buffer, 3 h room temperature
Summary of the method: (§1)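 Spot membrane, (βA)(βA) spacer; T-TBS pH 8.0 wash, block 5% saccharose/4% BSA. 3 h RT with IgG-Fc 1 μg/ml, serum 1:10,000, or block buffer only (specificity control). 3× wash, AP-anti-human IgG 1.2 μg/ml, NBT/BCIP in pH 9.5 buffer.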

human IgG-Fc = experiment: Cellulose-immobilized 13-mer peptide variants incubated with human IgG-Fc, anti-human IgG-AP detection; format: binding; parameters: key: No binding of immunoglobulin for the defined peptide variant, detection negative: 0; Binding of immunoglobulin for the defined peptide variant, detection positive: +; settings: IgG-Fc 1 μg/ml in blocking buffer, 3 h room temperature
Summary of the method: as §1

Substance | Rel. capacity: mg of bound protein/mg of peptide matrix loading [1] [mg/mg] | Volume capacity: mg of bound protein/ml of peptide matrix [1] [mg/mL] | Result for incubation with serum albumin (immunoglobulin binding detection) (serum albumin) | Result for incubation with human plasma (immunoglobulin binding detection) [2] | Result for incubation with human IgG-Fc (immunoglobulin binding detection) (human IgG-Fc)
acetyl-D-S-A-W-H-L-G-E-L-V-W-C-T-((βA)(βA)K) (Ac-DSAWHLGELVWCT[βAla][βAla]K; also: immobilized on sepharose 4B) [Peptide matrix A1] | 0.53 | 4.70 | – | – | –
06D: cellulose-bound 13-mer variant DCAWHDGELVWCT-(βA)(βA) (DCAWHDGELVWCT[βAla][βAla]; disulfide 2-12 (inferred); not fully specified (N-terminus); printed as DCAWHDGELVWCT-(βA)(βA); also: cellulose-bound) | – | – | 0 | 0 | +
08P: cellulose-bound 13-mer variant DCAWHLGPLVWCT-(βA)(βA) (DCAWHLGPLVWCT-{βAla-βAla-cellulose}; disulfide 2-12 (inferred); not fully specified (N-terminus); printed as DCAWHLGPLVWCT-(βA)(βA); reading uncertain) | – | – | 0 | 0 | 0

— patent publication US7205382B2, “Peptides, the production and use thereof for binding immunoglobulins” (Fresenius Medical Care Affina GmbH, priority 2000, dated 2007)
